Assay results as given in patent publication US20240279218A1 (Hoffmann-La Roche Inc., priority 2016, published 2024).

Experiments:
[1] = molecular target: T1, h-GABA-A α5β3γ2 (Homo sapiens (Human), UniProt P18507+P31644); assay: [3H]flumazenil competition binding assay, membranes of HEK293 cells expressing human GABAA receptors; conditions: displacement of [3H]flumazenil 0.5 nM, HEK293 cells expressing human receptors, mean of two determinations; read-out: Ki h-GABA-A α5β3γ2
Protocol: The affinity of compounds at GABAA receptor subtypes was measured by competition for [3H]flumazenil (85 Ci/mmol; Roche) binding to HEK293 cells expressing rat (stably transfected) or human (transiently transfected) receptors of composition α1β3γ2, α2β3γ2, α3β3γ2 and α5β3γ2.
Cell pellets were suspended in Krebs-tris buffer (4.8 mM KCl, 1.2 mM CaCl2, 1.2 mM MgCl2, 120 mM NaCl, 15 mM Tris; pH 7.5; binding assay buffer), homogenized by polytron for ca. 20 sec on ice and centrifuged for 60 min at 4° C. (50000 g; Sorvall, rotor: SM24=20000 rpm). The cell pellets were resuspended in Krebs-tris buffer and homogenized by polytron for ca. 15 sec on ice. Protein was measured (Bradford method, Bio-Rad) and aliquots of 1 mL were prepared and stored at −80° C.
Assays were incubated to equilibrium for 1 hour at 4° C. and harvested onto GF/C uni-filters (Packard) by filtration using a Packard harvester and washing with ice-cold wash buffer (50 mM Tris; pH 7.5). After drying, filter-retained radioactivity was detected by liquid scintillation counting. Ki values were calculated using Excel-Fit (Microsoft) and are the means of two determinations.

[2] = molecular target: T1, h-GABA-A α5β3γ2; assay: Two-electrode voltage clamp electrophysiology in Xenopus oocytes expressing GABAA receptors, modulation of GABA EC20 current; type: cell-based; conditions: for Efficacy (GABA) %: % modulation of GABA EC20 = 100*(Fold increase−1); for Efficacy (GABA) % / Fold increase h-GABA-A α5β3γ2 oocyte: Xenopus oocytes; for Fold increase h-GABA-A α5β3γ2 oocyte: GABA EC20, test compound at approx. 30 fold its Ki
Protocol: Xenopus laevis oocytes at maturation stages V-VI were used for the expression of cloned mRNA encoding GABAA receptor subunits. Oocytes ready for RNA micro-injection were bought from Ecocyte, Castrop-Rauxel, Germany and stored in modified Barth's medium (composition in mM: NaCl 88, KCl 1, NaHCO32.4, HEPES 10, MgSO4 0.82, CaNO3 0.33, CaCl2) 0.33, pH=7.5) at 20° C. until the experiment.
Oocytes were plated in 96-well plates to be used in an automated instrument (Robo-ocyte, MultiChannelSystems, Reutlingen, Germany) for microinjection and electrophysiological recordings. Approximately 50 nl of an aqueous solution containing the RNA transcripts for the subunits of the desired GABAA receptor was injected into each oocyte. RNA concentrations ranged between 0.3 and 16 ng/μl/subunit and were adjusted in pilot experiments to obtain GABA responses of a suitable size and a maximal effect of the reference modulator, Beta-CCM (β-CCM), a betacarboline negative allosteric modulator (NAM) at the GABAA receptor benzodiazepine (BZD) binding site or Midazolam, a benzodiazepine positive allosteric modulator (PAM) at the GABAA receptor benzodiazepine (BZD) binding site. The concentration of the γ2 subunit encoding RNA usually was 5-to 10-fold higher than the RNAs encoding the other subunits. Oocytes were kept in modified Barth's medium (composition in mM: NaCl 88, KCl 1, NaHCO3 4, HEPES 10, MgSO4 0.82, CaNO3 0.33, CaCl2 0.33, pH=7.5) at 20° C. until the experiment.
Electrophysiological experiments were performed on days 3 to 5 after the micro-injection of mRNA. During the experiment the oocytes were constantly superfused by a solution containing (in mM) NaCl 90, KCl 1, HEPES 5, MgCl2 1, CaCl2 1 (pH 7.4). Oocytes were impaled by two glass microelectrodes (resistance: 0.4 MΩ) which were filled with a solution containing KCl 1M+K-acetate 1.5 M and voltage-clamped to −80 mV. The recordings were performed at room temperature using the Roboocyte two-electrode voltage clamp system (Multichannelsystem). After an initial equilibration period of 1.5 min GABA was added for 1.5 min at a concentration evoking approximately 20% of a maximal current response (EC20). After another rest interval of 2.5 min GABA was again added evoking a response of similar amplitude and shape. […] Current traces were recorded at a digitization rate of 10 Hz during and shortly before and after the GABA application.
Each compound and concentration was tested on at least 3 oocytes.
For the analysis, the digitized current traces of the first and second GABA response were superimposed and, if necessary, rescaled to equal maximal amplitudes. The ratio between the two responses during the time interval of test compound application was calculated point by point. The extremum of the resulting “ratio trace” was taken as the efficacy (“Fold increase”) of the compound expressed as “% modulation of GABA EC20” (100*(Fold increase−1)).

[3] = positive control, maximally effective concentration, 3-6 oocytes per plate

Compound	Efficacy (GABA) % [2] [%]	Fold increase h-GABA-A α5β3γ2 oocyte [2]	also measured
Cc1ccc(-c2noc(C)c2COc2ccc(C(=O)N[C@@H]3CCS(=O)(=O)C3)cn2)cn1 [Example 20, N-((3R)-1,1-dioxothiolan-3-yl)-6-((5-methyl-3-(6-methylpyridin-3-yl)-1,2-oxazol-4-yl)methoxy)pyridine-3-carboxamide]	95	1.95	Ki [1]: 11.8 nM
Cc1ccc(-c2noc(C)c2COc2ccc(C(=O)N[C@H]3C[C@@H](OC(F)F)C3)nn2)cn1 [Example 173, cis-N-(3-(difluoromethoxy)cyclobutyl)-6-((5-methyl-3-(6-methylpyridin-3-yl)isoxazol-4-yl)methoxy)pyridazine-3-carboxamide]	68	1.68	Ki [1]: 15.6 nM
Cc1ccc(-c2noc(C)c2COc2ccc(C(=O)N[C@@H]3CC[C@@H](O)C3)nn2)cn1 (racemic) [Example 152, N-((1RS,3RS)-3-hydroxycyclopentyl)-6-((5-methyl-3-(6-methylpyridin-3-yl)isoxazol-4-yl)methoxy)pyridazine-3-carboxamide]	85	1.85	–
CCC[C@@H](CO)NC(=O)c1ccc(OCc2c(-c3ccc(N(C)C)nc3)noc2C)nc1 [Example 141, (S)-6-((3-(6-(dimethylamino)pyridin-3-yl)-5-methylisoxazol-4-yl)methoxy)-N-(1-hydroxypentan-2-yl)nicotinamide]	243	3.43	Ki [1]: 49.5 nM
CCC[C@@H](CO)NC(=O)c1ccc(OCc2c(-c3ccc(C4CC4)nc3)noc2C)nc1 [Example 129, 6-((3-(6-cyclopropyl-3-pyridyl)-5-methyl-isoxazol-4-yl)methoxy)-N-((1S)-1-(hydroxymethyl)butyl)pyridine-3-carboxamide]	156	2.56	Ki [1]: 25.6 nM
Cc1ccc(-c2noc(C)c2COc2ccc(C(=O)NC3CCS(=O)(=O)CC3)nn2)cn1 [Example 30, N-(1,1-dioxothian-4-yl)-6-((5-methyl-3-(6-methylpyridin-3-yl)-1,2-oxazol-4-yl)methoxy)pyridazine-3-carboxamide]	94	1.94	Ki [1]: 12.4 nM
Cc1ccc(-c2noc(C)c2COc2ccc(C(=O)NC(C)C(F)(F)F)nn2)cn1 (racemic) [Example 34, (RS)-6-((5-methyl-3-(6-methylpyridin-3-yl)isoxazol-4-yl)methoxy)-N-(1,1,1-trifluoropropan-2-yl)pyridazine-3-carboxamide]	84	1.84	–
Cc1ccc(-c2noc(C)c2COc2ccc(C(=O)N[C@H]3C[C@H](OC(F)F)C3)nn2)cn1 [Example 174, trans-N-(3-(difluoromethoxy)cyclobutyl)-6-((5-methyl-3-(6-methylpyridin-3-yl)isoxazol-4-yl)methoxy)pyridazine-3-carboxamide]	55	1.55	Ki [1]: 8.8 nM
Cc1ccc(-c2noc(C)c2COc2ccc(C(=O)NC3CCS(=O)(=O)C3)nn2)cn1 (racemic) [Example 36, (RS)—N-(1,1-dioxothiolan-3-yl)-6-((5-methyl-3-(6-methylpyridin-3-yl)-1,2-oxazol-4-yl)methoxy)pyridazine-3-carboxamide]	65	1.65	–
COC(=O)c1cc2c(cn1)[nH]c1ccccc12 [β-CCM, Beta-CCM, reference compound]	–	–	Fold increase [2, 3]: ~0.5; inhibition of the GABA-evoked current [2, 3]: ~50%
Cc1ccc(-c2noc(C)c2COc2ccc(C(=O)NC3CCOC3)nn2)cn1 (racemic) [Example 45, (RS)-6-((5-methyl-3-(6-methylpyridin-3-yl)isoxazol-4-yl)methoxy)-N-(tetrahydrofuran-3-yl)pyridazine-3-carboxamide]	84	1.84	–
Cc1ccc(-c2noc(C)c2COc2ccc(C(=O)NC(C)(C)CCS(C)(=O)=O)nn2)cn1 [Example 80, 6-((5-methyl-3-(6-methylpyridin-3-yl)isoxazol-4-yl)methoxy)-N-(2-methyl-4-(methylsulfonyl)butan-2-yl)pyridazine-3-carboxamide]	108	2.08	–
CO[C@@H]1CC[C@@H](NC(=O)c2ccc(OCc3c(-c4ccc(C)nc4)noc3C)nn2)C1 (racemic) [Example 166, trans-N-((1RS,3RS)-3-methoxycyclopentyl)-6-((5-methyl-3-(6-methylpyridin-3-yl)isoxazol-4-yl)methoxy)pyridazine-3-carboxamide]	70	1.7	–
Cc1ccc(-c2noc(C)c2COc2ccc(C(=O)NC3CCCOCC3)nn2)cn1 (racemic) [Example 187, (RS)-6-((5-methyl-3-(6-methylpyridin-3-yl)isoxazol-4-yl)methoxy)-N-(oxepan-4-yl)pyridazine-3-carboxamide]	88	1.88	–
O=C(N[C@H]1CCOC1)c1ccc(OCc2c(-c3ccc(Cl)nc3)noc2C2CC2)nn1 [Example 179, (S)-6-((3-(6-chloropyridin-3-yl)-5-cyclopropylisoxazol-4-yl)methoxy)-N-(tetrahydrofuran-3-yl)pyridazine-3-carboxamide]	82	–	–
Cc1ncc2n1-c1ccc(Cl)cc1C(c1ccccc1F)=NC2 [Midazolam, reference compound]	–	–	Fold increase [2, 3]: ~2.5; potentiation of the GABA-induced current [2, 3]: ~150%
Cc1ccc(-c2noc(C)c2COc2ccc(C(=O)NC3CCOC(C)(C)C3)nn2)cn1 (racemic) [Example 58, (RS)—N-(2,2-dimethyltetrahydropyran-4-yl)-6-((5-methyl-3-(6-methylpyridin-3-yl)isoxazol-4-yl)methoxy)pyridazine-3-carboxamide]	71	1.71	–
Cc1onc(-c2ccc(Cl)nc2)c1COc1ccc(C(=O)N[C@H]2CCOC2)nn1 [Example 160, (S)-6-((3-(6-chloropyridin-3-yl)-5-methylisoxazol-4-yl)methoxy)-N-(tetrahydrofuran-3-yl)pyridazine-3-carboxamide]	42	–	–
Cc1ccc(-c2noc(C)c2COc2ccc(C(=O)N3C[C@@H]4C[C@H]3CO4)nn2)cn1 [Example 151, (1S,4S)-2-oxa-5-azabicyclo[2.2.1]heptan-5-yl(6-((5-methyl-3-(6-methylpyridin-3-yl)isoxazol-4-yl)methoxy)pyridazin-3-yl)methanone]	68	–	–
Cc1ccc(-c2nocc2COc2ccc(C(=O)NC3CCOCC3)cn2)cn1 [Example 44, 6-((3-(6-methyl-3-pyridyl)isoxazol-4-yl)methoxy)-N-tetrahydropyran-4-yl-pyridine-3-carboxamide]	54	–	–
Cc1ccc(-c2noc(C)c2COc2ccc(C(=O)NC3(C)CCOC3)nn2)cn1 (racemic) [Example 75]	89	1.89	–
